The record followed here is US7056947B2, “Aza-peptide epoxides” (Georgia Tech Research Corp., priority 2002, dated 2006).

Type in all cases: biochemical
For one assay, the target named is T1, papain (Carica papaya, UniProt P00784).
T1 sequence (P00784 134-345): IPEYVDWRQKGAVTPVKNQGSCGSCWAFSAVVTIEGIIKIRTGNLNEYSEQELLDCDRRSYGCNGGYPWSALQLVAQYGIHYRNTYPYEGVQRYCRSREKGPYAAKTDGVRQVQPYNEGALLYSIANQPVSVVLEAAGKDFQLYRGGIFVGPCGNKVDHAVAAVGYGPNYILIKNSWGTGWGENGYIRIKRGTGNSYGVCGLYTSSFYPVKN
The assay is described as follows: Inhibition of papain, incubation method. Conditions: second-order rate constant, NI = no inhibition; for kinact/KI: pH 7.5, read-out: kobs/[I] papain. In a few lines:
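Papain (~0.29 mg/mL) incubated with inhibitor in 50 mM Hepes pH 7.5, 2.5 mM DTT, 2.5 mM EDTA; residual activity read on Z-Phe-Arg-pNA (53.7 μM) by p-nitroanilide release at 405 nm. Pseudo-first-order inactivation constants from ln vt/vo versus time.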

A further assay concerns the target cathepsin B (Homo sapiens, UniProt P07858). The assay is described as follows: Inhibition of cathepsin B, incubation method. Conditions: second-order rate constant, NI = no inhibition; for kinact/KI: pH 6, read-out: kobs/[I] cathepsin B. The source says:
The release of 7-amino-4-methylcoumarin was monitored (λex=360 nm, λem=465 nm) using a Tecan Spectra Fluor microplate reader. Pseudo first-order inactivation rate constants were obtained from plots of In vt/vo versus time.

The target in the next assay is porcine pepsin (Sus scrofa, UniProt P00791). Kind of assay: Aspartyl protease assay, pepsin. The conditions noted are these: preincubated 20 minutes, pH 3.5. On the procedure:
(§1) Aspartyl Proteases. Assays with the following aspartyl proteases were performed: porcine pepsin, human cathepsin D, plasmepsin 2 (from P. falciparum), and the secreted aspartic proteinase 2 (SAP-2) from Candida albicans. The inhibitors were also assayed with HIV-1 protease. The inhibitors were preincubated for 30 minutes with HIV-1 protease and 20 minutes with the other enzymes. Substrate was then added and the substrate hydrolysis was monitored.

The next assay has as its target human cathepsin D (Homo sapiens, UniProt P07339). Kind of assay: Aspartyl protease assay, cathepsin D. The conditions noted are these: preincubated 20 minutes, pH 3.5. On the procedure: as §1
For the next assay, the target named is plasmepsin 2 (Plasmodium falciparum, UniProt P46925). Kind of assay: Aspartyl protease assay, plasmepsin 2. Conditions: preincubated 20 minutes, pH 4.5. On the procedure: as §1
plasmepsin 2, sequence (P46925 125-453): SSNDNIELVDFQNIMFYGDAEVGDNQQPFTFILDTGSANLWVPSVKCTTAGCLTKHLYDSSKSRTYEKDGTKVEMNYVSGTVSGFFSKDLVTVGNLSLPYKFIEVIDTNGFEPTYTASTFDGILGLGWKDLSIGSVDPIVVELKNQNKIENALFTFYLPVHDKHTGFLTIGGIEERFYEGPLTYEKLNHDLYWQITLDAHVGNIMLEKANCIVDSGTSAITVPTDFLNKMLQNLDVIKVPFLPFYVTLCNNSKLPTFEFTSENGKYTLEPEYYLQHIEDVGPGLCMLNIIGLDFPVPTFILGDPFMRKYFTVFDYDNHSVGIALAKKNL
Assay [1] deals with secreted aspartic proteinase 2 (SAP-2) (Candida albicans, UniProt P0DJ06). Kind of assay: Aspartyl protease assay, SAP-2. Conditions: preincubated 20 minutes, pH 4.5. On the procedure:
as §1

The target of the next assay is HIV-1 protease (Human immunodeficiency virus type 1 group M subtype B, UniProt P04585). Kind of assay: Aspartyl protease assay, HIV-1 protease. Conditions: preincubated 30 minutes. On the procedure:
as §1

Another assay deals with granzyme B (Homo sapiens, UniProt P10144). The assay is described as follows: Granzyme B assay. Conditions: preliminary assays, inhibitor 5 mM stock incubated 1 hour, substrate IETD-pNA. On the procedure: Granzyme B. Assays with granzyme B were also performed. In the preliminary assays, the inhibitor (10 μL, 5 mM stock solution in DMSO) was incubated with granzyme B (90 μL) for 1 hour. After the incubation period, to these wells was added IETD-pNA (100 μL) and the rate was monitored at 405 nm.
granzyme B, sequence (P10144 21-247, species assumed): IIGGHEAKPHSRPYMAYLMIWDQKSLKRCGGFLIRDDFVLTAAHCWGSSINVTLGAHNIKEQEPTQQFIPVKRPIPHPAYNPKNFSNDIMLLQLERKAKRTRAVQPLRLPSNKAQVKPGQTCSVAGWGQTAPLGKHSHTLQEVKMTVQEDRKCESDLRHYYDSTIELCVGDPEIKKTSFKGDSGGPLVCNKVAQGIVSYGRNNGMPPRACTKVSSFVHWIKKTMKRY

Assay [2] deals with T2, schistosome legumain SmAE (Schistosoma mansoni asparaginyl endopeptidase) (Schistosoma mansoni, UniProt P09841, N192C, form not given).
T2 sequence (P09841 1-429 N192C): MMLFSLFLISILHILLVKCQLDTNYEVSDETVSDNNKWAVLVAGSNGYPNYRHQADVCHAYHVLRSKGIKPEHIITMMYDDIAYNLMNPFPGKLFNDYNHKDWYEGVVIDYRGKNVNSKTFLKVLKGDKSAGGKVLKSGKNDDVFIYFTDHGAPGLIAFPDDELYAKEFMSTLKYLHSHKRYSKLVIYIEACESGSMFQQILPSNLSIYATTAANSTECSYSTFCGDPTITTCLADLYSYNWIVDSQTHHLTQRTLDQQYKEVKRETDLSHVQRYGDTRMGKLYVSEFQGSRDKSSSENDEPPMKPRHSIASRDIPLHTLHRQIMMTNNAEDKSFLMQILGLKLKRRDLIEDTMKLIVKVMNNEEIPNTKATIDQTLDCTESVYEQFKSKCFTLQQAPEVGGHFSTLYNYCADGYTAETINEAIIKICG
The assay is described as follows: Schistosome legumain (SmAE) IC50 assay. The conditions noted are these: read-out: Schistosome Legumain IC50; preincubated 20 minutes at room temperature, substrate Cbz-Ala-Ala-Asn-AMC; NI = no inhibition. On the procedure:
Studies with the aza-peptide epoxides using the schistosome legumain SmAE (Schistosoma mansoni asparaginyl endopeptidase) were also performed. The enzymatically pure enzyme (zymogen form) was expressed in Pichia without interference from other proteases (ref FEBS lett 2000 466 244–248 Caffrey). The actual active site enzyme concentration is unknown. The lyophilized enzyme (50–100 mg) was reconstituted in 1.5 mL 0.5 M sodium acetate, pH 4.5 containing 4 mM DTT, and left to stand at 37° C. for 3–4 hours to allow for auto-activation of the zymogen. In a black 96-well microtiter plate, 50 uL of activated enzyme was added to an equal volume of 0.1 M citrate-phosphate buffer pH 6.8 containing 4 mM DTT. Inhibitor stock solutions (20 mM) were prepared in DMSO. Serial dilutions (using water) of inhibitor were added (as 1 uL aliquots) to yield concentrations of between 2 and 0.00002 uM inhibitor. The inhibitors were preincubated with the protease at room temperature for 20 minutes before the assay (IC50s were the same when incubated for only 5 minutes). After incubating various inhibitor concentrations with enzyme, 100 uL of the same buffer containing 20 uM substrate (Cbz-Ala-Ala-Asn-AMC) was added to the wells and the reaction monitored at room temperature with linear kinetics up to 20 minutes. Inhibitors are tested in duplicate. A plot of the RFU/min versus the inhibitor concentration [μM] permitted calculation of an IC50 value and estimation of the kobs/[I].

In assay [3] the target is dipeptidyl peptidase I (DPPI, cathepsin C) (Homo sapiens, UniProt P53634). Kind of assay: Inhibition of DPPI.
dipeptidyl peptidase I (DPPI, cathepsin C), sequence (P53634 25-463, species assumed): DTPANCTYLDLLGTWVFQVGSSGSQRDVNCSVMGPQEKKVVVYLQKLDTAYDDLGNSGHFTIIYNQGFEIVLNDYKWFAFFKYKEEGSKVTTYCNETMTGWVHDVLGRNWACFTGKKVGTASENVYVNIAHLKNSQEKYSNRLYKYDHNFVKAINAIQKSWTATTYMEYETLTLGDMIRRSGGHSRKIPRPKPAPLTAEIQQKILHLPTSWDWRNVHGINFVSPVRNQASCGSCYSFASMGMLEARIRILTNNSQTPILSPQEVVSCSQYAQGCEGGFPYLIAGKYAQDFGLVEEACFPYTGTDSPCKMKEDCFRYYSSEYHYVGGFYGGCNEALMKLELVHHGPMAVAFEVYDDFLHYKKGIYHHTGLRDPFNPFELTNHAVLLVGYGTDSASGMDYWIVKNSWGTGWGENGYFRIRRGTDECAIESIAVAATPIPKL

The term IC50 denotes the concentration that gives 50% inhibition.

Where only a bound is given, the exact number is not on record here.

secreted aspartic proteinase 2 (SAP-2), sequence (P0DJ06 57-398): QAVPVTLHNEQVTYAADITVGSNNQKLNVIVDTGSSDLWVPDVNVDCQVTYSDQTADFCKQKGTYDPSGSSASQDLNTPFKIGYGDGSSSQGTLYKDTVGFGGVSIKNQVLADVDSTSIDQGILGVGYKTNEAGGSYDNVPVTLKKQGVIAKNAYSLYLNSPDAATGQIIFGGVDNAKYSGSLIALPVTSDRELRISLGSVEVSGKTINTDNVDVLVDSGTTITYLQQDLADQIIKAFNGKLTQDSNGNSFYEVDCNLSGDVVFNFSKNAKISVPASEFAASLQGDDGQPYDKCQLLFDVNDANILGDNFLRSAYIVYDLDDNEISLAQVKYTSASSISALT
human cathepsin D, sequence (P07339 65-412): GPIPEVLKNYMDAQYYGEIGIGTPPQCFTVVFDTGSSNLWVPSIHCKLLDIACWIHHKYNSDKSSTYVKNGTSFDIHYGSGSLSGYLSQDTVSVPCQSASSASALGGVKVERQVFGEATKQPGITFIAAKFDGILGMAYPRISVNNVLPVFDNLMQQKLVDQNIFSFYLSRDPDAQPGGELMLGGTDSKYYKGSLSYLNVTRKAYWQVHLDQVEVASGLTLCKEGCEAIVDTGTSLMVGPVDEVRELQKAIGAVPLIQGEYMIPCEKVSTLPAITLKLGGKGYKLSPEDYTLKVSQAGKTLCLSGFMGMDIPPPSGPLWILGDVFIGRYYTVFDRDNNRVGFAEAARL
porcine pepsin, sequence (P00791 60-385): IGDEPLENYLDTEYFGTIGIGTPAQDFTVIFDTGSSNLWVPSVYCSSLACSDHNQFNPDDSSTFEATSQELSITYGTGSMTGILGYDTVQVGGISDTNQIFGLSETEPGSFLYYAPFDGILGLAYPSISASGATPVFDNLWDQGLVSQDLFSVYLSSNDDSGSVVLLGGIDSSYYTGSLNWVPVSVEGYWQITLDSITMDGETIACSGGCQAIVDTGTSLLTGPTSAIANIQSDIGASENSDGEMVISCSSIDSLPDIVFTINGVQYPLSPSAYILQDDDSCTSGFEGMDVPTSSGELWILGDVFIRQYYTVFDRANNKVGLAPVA

Consider `CCOC(=O)[C@H]1O[C@@H]1C(=O)N(CC(N)=O)NC(=O)[C@H](C)NC(=O)[C@H](C)NC(=O)OCc1ccccc1` [Cbz-Ala-Ala-AAsn-(2S, 3S)-EP-COOEt, (2S,3S)-3-(N^2-(N-Benzyloxycarbonylalanylalanyl)-N^1-carbamoylmethylhydrazinocarbonyl)oxirane-2-carboxylic Acid Ethyl Ester], for which the kinact/KI on papain is 4 M⁻¹ s⁻¹; at cathepsin B it was 6 M⁻¹ s⁻¹. Further, the “inhibition of porcine pepsin” value against porcine pepsin was “less than 20%”. Further, the “inhibition of human cathepsin D” value against human cathepsin D is on record as “less than 20%”. The “inhibition of plasmepsin 2” value at plasmepsin 2 is “less than 20%”. Besides, the “inhibition of SAP-2” value in assay [1] is “less than 20%”. The “inhibition of HIV-1 protease” value against HIV-1 protease was “less than 20%”. Further, on granzyme B, the “inhibition of granzyme B” value was “no inhibition”.
Consider `CC(NC(=O)OCc1ccccc1)C(=O)NC(C)C(=O)NN(CC(N)=O)C(=O)C1OC1C(=O)NCCc1ccccc1` [12e, (2S,3S)-2-(2-Phenethylcarbamoyl)-3-(N^2-(N -benzyloxycarbonylalanylalanyl)-N^1-carbamoylmethylhydrazinocarbonyl)oxirane], for which the IC50 in assay [2] is over 2000 nM.
Regarding `CC(NC(=O)[C@@H]1O[C@H]1C(=O)N(CC(N)=O)NC(=O)[C@H](C)NC(=O)[C@H](C)NC(=O)OCc1ccccc1)C(=O)NCc1ccccc1` (stereo partly drawn) [12f, (2R,3R)-2-(1-Benzylcarbamoylethylcarbamoyl)-3-(N^2-(N-benzyloxycarbonylalanylalanyl)-N^1-carbamoylmethylhydrazinocarbonyl)oxirane], the IC50 in assay [2] was over 2000 nM.
“trans-3-(N-(N-tert-Butoxycarbonylnorvalyl)-N^1-phenylethylhydrazinocarbonyl)oxirane-2-carboxylic Acid Ethyl Ester [Boc-Nva-AHph-trans-EP-COOEt]”: at papain, the “kobs/[I] papain” value was 1.4 M⁻¹ s⁻¹. Moreover, the “kobs/[I] cathepsin B” value on cathepsin B stood at 2.7 M⁻¹ s⁻¹. In assay [3], the “kobs/[I] DPPI” value was 0.5 M⁻¹ s⁻¹.
Regarding `CC(NC(=O)OCc1ccccc1)C(=O)NC(C)C(=O)NN(CC(N)=O)C(=O)C1OC1C(=O)NCc1ccccc1` [12d, (2S,3S)-2-(2-Benzylcarbamoyl)-3-(N^2-(N-benzyloxycarbonylalanylalanyl)-N^1-carbamoylmethylhydrazinocarbonyl)oxirane], the IC50 in assay [2] is over 2000 nM.
“trans-3-(N^2-Norvalyl)-N^1-phenylethylhydrazinocarbonyl)-1-(2-phenylethyl)oxirane Trifluoroacetate Salt [Nva-AHph-trans-EP-CH2CH2Ph.TFA]”: in assay [3], the “kobs/[I] DPPI” value was determined as 0.1 M⁻¹ s⁻¹.
Turning to `CCCC[C@H](NC(=O)OC(C)(C)C)C(=O)NN(CCc1ccccc1)C(=O)[C@@H]1O[C@H]1C(=O)OCC` (relative stereo) [Boc-Nle-AHph-trans-EP-COOEt, trans-3-(N^2-(N-tert-Butoxycarbonylnorleucyl)-N^1-phenylethylhydrazinocarbonyl)oxirane-2-carboxylic Acid Ethyl Ester], the kinact/KI on papain amounted to 1.6 M⁻¹ s⁻¹; on cathepsin B, 1.3 M⁻¹ s⁻¹; in assay [3] (read-out: kobs/[I] DPPI), 0.7 M⁻¹ s⁻¹.
